Molecular target: T1, NDUFA6
T1 construct: SPR protein; species is a guess, rat possible
Experiment: SPR, Biacore 8K, […] Langmuir kinetic fit
Format: binding

**Q.** Which Kd does the source give for `O=C(/C=C/c1ccc(O)c(O)c1)O[C@@H]1C[C@](OC(=O)/C=C/c2ccc(O)c(O)c2)(C(=O)O)C[C@@H](O)[C@H]1O` [1,5-dicaffeoylquinic acid] here?
**A.** Its Kd is 735 nM.

Reference: publication PMC12536539, “Detumescence Analgesic Plaster mitigates knee osteoarthritis via active ingredients targeting mitochondrial complex 1/AMPK/MYL3-regulated cartilage homeostasis” (Chinese Medicine, 2025)
